{"source": "patent US20120034193A1", "about": "“TREATMENT OF NEUROTROPHIC FACTOR MEDIATED DISORDERS” (priority 2009, published 2012)", "key": {"[1]": {"system": "Rat spinal motor neurones", "assay": "Neuronal survival and neurite outgrowth in spinal motor neurones", "assay_type": "cell-based", "details": "3 days"}, "[2]": {"system": "BDNF", "assay": "Brain BDNF in aged rats (ELISA)", "assay_type": "in vivo, Sprague Dawley (SD) rats", "details": "18 mg/kg/day oral, 3 months, aged 1.21, young 1.65", "protocol": "Old Sprague Dawley (SD) rats (20 month old) were orally administered sarsasapogenin or smilagenin (18 mg/kg/day) for 3 months. […] Young SD rats (4 month old) were used as healthy positive control. At the end of the treatment the brains removed for quantification of BDNF using an ELISA."}, "[3]": {"assay": "Tissue distribution after a single oral administration, rat", "assay_type": "in vivo", "details": "30 mg/kg single oral"}, "[4]": {"system": "Rat dopaminergic neurones", "assay": "Pre-treatment against MPP+-induced loss of dopaminergic neurones", "assay_type": "cell-based", "details": "30 nM, 24 h before and during MPP+ 2 μM 48 h", "protocol": "Rat dopaminergic neurones were cultured as previously described (Schinelli et al., Journal of Neurochemistry, 1988, 50, pp. 1900-1907). On day 5, the cultures were washed and placed in fresh medium containing test compounds (30 nM), vehicle (DMSO, 0.25%) or a combination of BDNF (1.85 nM) and GDNF (0.17 nM) for 24 h.\nExposure of rat primary dopaminergic neurones to MPP^+ (2 μM, 24 h) causes a significant decrease in the number of dopaminergic neurones compared to the control. On day 6, MPP^+ (2 μM) was added to the cultures in the presence of test compounds, vehicle or a combination of BDNF and GDNF for a further 48 h. MPP^+ induces neuronal death, via inhibition of complex I in the mitochondria and consequent ATP depletion, resulting in the production of free radicals and induction of apoptosis. After the incubation period, the cultures were fixed with paraformaldehyde in PBS (4%). After fixation, the neurones were permeabilised with Triton ×100 (0.05%) for 30 min. The neurones were then incubated with anti-tyrosine hydroxylase (TH) at 37° C. for 2 h. The neurones were washed three times with PBS, and then incubated with goat anti mouse/Cy3 for 2 h at 37° C. The neurones were mounted and examined with the fluorescence microscopy."}, "[5]": {"system": "Rat cortical neurones", "assay": "Neuronal survival and neurite outgrowth of cortical neurones cultured in the absence of serum", "assay_type": "cell-based", "details": "30 nM, one day, no serum", "protocol": "Rat cortical neurones were cultured following the method described above.\nThe test compounds were added for 24 h.\nRat cortical neurones were exposed to sarsasapogenin, smilagenin (30 nM) or vehicle (DMSO, 0.25%) in the absence FBS or FCS for one day. Cortical neurones were stained using a monoclonal antibody anti β-tubulin diluted and an anti mouse Immunoglobulin G diluted. These antibodies stained neurone cell bodies (quantifying the neuroprotective effect) and neurites (quantifying the neurotrophic effect). An epifluorecence microscope (magnification ×20) with a camera took 2 pictures per well (10 pictures per condition). Analyses of the number of cells labelled with anti β-tubulin antibodies and of the total number of cells was performed using LUCIA 6.0 software."}, "[6]": {"system": "Rat primary dopaminergic neurones", "assay": "Reversal of MPP+-induced damage in dopaminergic neurones", "assay_type": "cell-based", "details": "30 nM for 48 h after MPP+ 2 μM 24 h", "protocol": "Rat primary dopaminergic neurones were prepared as described above. On day 5, MPP^+ (2 μM) was added to the cultures for 24 h in culture medium at 37° C. in 5% CO2/95% air atmosphere. Exposure of rat primary dopaminergic neurones to MPP^+ (2 μM, 24 h) causes a significant decrease in the number of dopaminergic neurones compared to the control. On day 6 the medium was removed and fresh medium containing vehicle (DMSO, 0.25%), sarsasapogenin, smilagenin or a combinations of BDNF and GDNF was added. After 48 h, the extent of dopaminergic damage was determined as detailed above."}, "[7]": {"system": "Rat spinal motor neurones", "assay": "Reversal of glutamate-induced damage in spinal motor neurones", "assay_type": "cell-based", "protocol": "The rat spinal motor neurones were prepared as detailed above. On day 10, the medium was removed and the cultures exposed to glutamate (4 μM) for 10 min at 37° C. in 5% CO2/95% air atmosphere in defined medium. After the glutamate exposure, cultures were washed with DMEM at 37° C. then placed in fresh culture medium containing sarsasapogenin, smilagenin, vehicle or BDNF. After 48 h, the extent of motor neurone damage was determined as detailed above. This Example develops the work reported in Example 8 of PCT patent application No. WO-A-03/082893."}}}
{"smiles": "C[C@H]1CC[C@@]2(OC1)O[C@H]1C[C@H]3[C@@H]4CC[C@@H]5C[C@@H](O)CC[C@]5(C)[C@H]4CC[C@]3(C)[C@H]1[C@@H]2C", "note": "[Sarsasapogenin, sarsasapogenin]", "values": [{"measurement": "Neurite outgrowth (% of control)", "setting": "[1]; 30 nM", "result": "129.98 ± 5.47 % of control"}, {"measurement": "Neuronal survival (% of control)", "setting": "[1]; 30 nM", "result": "119.14 ± 3.33 % of control"}, {"measurement": "Neurite outgrowth (% of control)", "setting": "[1]; 100 nM", "result": "137.38 ± 7.93 % of control"}, {"measurement": "Neuronal survival (% of control)", "setting": "[1]; 100 nM", "result": "117.87 ± 3.63 % of control"}, {"measurement": "BDNF (ng/g tissue)", "setting": "[2]", "result": "1.41 ± 0.07", "unit": "ng/g tissue"}, {"measurement": "Concentration of compound, Brain", "setting": "[3]; Rat F, 1 h", "result": 1210, "unit": "ng equivalents/g tissue"}, {"measurement": "Concentration of compound, Plasma", "setting": "[3]; Rat F, 1 h", "result": 1530, "unit": "ng equivalents/g tissue"}, {"measurement": "Concentration of compound, Spinal cord", "setting": "[3]; Rat F, 1 h", "result": 3020, "unit": "ng equivalents/g tissue"}, {"measurement": "Concentration of compound, Brain", "setting": "[3]; Rat F, 4 h", "result": 3860, "unit": "ng equivalents/g tissue"}, {"measurement": "Concentration of compound, Plasma", "setting": "[3]; Rat F, 4 h", "result": 2050, "unit": "ng equivalents/g tissue"}, {"measurement": "Concentration of compound, Spinal cord", "setting": "[3]; Rat F, 4 h", "result": 3830, "unit": "ng equivalents/g tissue"}, {"measurement": "Concentration of compound, Brain", "setting": "[3]; Rat F, 8 h", "result": 5980, "unit": "ng equivalents/g tissue"}, {"measurement": "Concentration of compound, Plasma", "setting": "[3]; Rat F, 8 h", "result": 1760, "unit": "ng equivalents/g tissue"}, {"measurement": "Concentration of compound, Spinal cord", "setting": "[3]; Rat F, 8 h", "result": 5080, "unit": "ng equivalents/g tissue"}, {"measurement": "Concentration of compound, Brain", "setting": "[3]; Rat F, 24 h", "result": 2800, "unit": "ng equivalents/g tissue"}, {"measurement": "Concentration of compound, Plasma", "setting": "[3]; Rat F, 24 h", "result": 629, "unit": "ng equivalents/g tissue"}, {"measurement": "Concentration of compound, Spinal cord", "setting": "[3]; Rat F, 24 h", "result": 3290, "unit": "ng equivalents/g tissue"}, {"measurement": "Concentration of compound, Brain", "setting": "[3]; Rat F, 168 h", "result": 134, "unit": "ng equivalents/g tissue"}, {"measurement": "Concentration of compound, Plasma", "setting": "[3]; Rat F, 168 h", "result": 90, "unit": "ng equivalents/g tissue"}, {"measurement": "Concentration of compound, Spinal cord", "setting": "[3]; Rat F, 168 h", "result": 590, "unit": "ng equivalents/g tissue"}, {"measurement": "Concentration of compound, Brain", "setting": "[3]; Rat M, 1 h", "result": 1140, "unit": "ng equivalents/g tissue"}, {"measurement": "Concentration of compound, Plasma", "setting": "[3]; Rat M, 1 h", "result": 1690, "unit": "ng equivalents/g tissue"}, {"measurement": "Concentration of compound, Spinal cord", "setting": "[3]; Rat M, 1 h", "result": 1090, "unit": "ng equivalents/g tissue"}, {"measurement": "Concentration of compound, Brain", "setting": "[3]; Rat M, 4 h", "result": 4970, "unit": "ng equivalents/g tissue"}, {"measurement": "Concentration of compound, Plasma", "setting": "[3]; Rat M, 4 h", "result": 2920, "unit": "ng equivalents/g tissue"}, {"measurement": "Concentration of compound, Spinal cord", "setting": "[3]; Rat M, 4 h", "result": 4350, "unit": "ng equivalents/g tissue"}, {"measurement": "Concentration of compound, Brain", "setting": "[3]; Rat M, 8 h", "result": 6920, "unit": "ng equivalents/g tissue"}, {"measurement": "Concentration of compound, Plasma", "setting": "[3]; Rat M, 8 h", "result": 2970, "unit": "ng equivalents/g tissue"}, {"measurement": "Concentration of compound, Spinal cord", "setting": "[3]; Rat M, 8 h", "result": 6060, "unit": "ng equivalents/g tissue"}, {"measurement": "Concentration of compound, Brain", "setting": "[3]; Rat M, 24 h", "result": 3800, "unit": "ng equivalents/g tissue"}, {"measurement": "Concentration of compound, Plasma", "setting": "[3]; Rat M, 24 h", "result": 967, "unit": "ng equivalents/g tissue"}, {"measurement": "Concentration of compound, Spinal cord", "setting": "[3]; Rat M, 24 h", "result": 4720, "unit": "ng equivalents/g tissue"}, {"measurement": "Concentration of compound, Brain", "setting": "[3]; Rat M, 168 h", "result": 194, "unit": "ng equivalents/g tissue"}, {"measurement": "Concentration of compound, Plasma", "setting": "[3]; Rat M, 168 h", "result": 149, "unit": "ng equivalents/g tissue"}, {"measurement": "Concentration of compound, Spinal cord", "setting": "[3]; Rat M, 168 h", "result": 747, "unit": "ng equivalents/g tissue"}, {"measurement": "Neuronal survival (% of control)", "setting": "[4]", "result": "88.73 ± 4.39 % of control"}, {"measurement": "Neurite outgrowth (% of control)", "setting": "[5]", "result": "152.85 ± 10.68 % of control"}, {"measurement": "Neuronal survival (% of control)", "setting": "[5]", "result": "149.55 ± 6.22 % of control"}, {"measurement": "Neuronal survival (% of control)", "setting": "[6]", "result": "104.30 ± 5.63 % of control"}, {"measurement": "Neuronal survival (% of control)", "setting": "[7]; 0.03 nM for 48 h after glutamate 4 μM 10 min", "result": "101.09 ± 4.12 % of control"}, {"measurement": "Neuronal survival (% of control)", "setting": "[7]; 3 nM for 48 h after glutamate 4 μM 10 min", "result": "108.10 ± 3.56 % of control"}, {"measurement": "Neuronal survival (% of control)", "setting": "[7]; 300 nM for 48 h after glutamate 4 μM 10 min", "result": "120.43 ± 7.46 % of control"}]}
